Measurements reported in patent US10112939B2, “Tied-back benzamide derivatives as potent rock inhibitors” (Bristol-Myers Squibb Company, priority 2014, dated 2018).

Target: ROCK2 (Homo sapiens (Human), UniProt O75116)
Experiment: ROCK assay (peptide substrate phosphorylation, LABCHIP 3000 Reader)
Assay type: biochemical
Details: 5 μM ATP, 1.5 μM peptide substrate
Protocol: Compounds were dissolved in DMSO so that the final concentration of DMSO was <2%, and the reaction was initiated with Rho kinase variants. After incubation, the reaction was terminated by the addition of EDTA and the phosphorylated and non-phosphorylated peptides separated using a LABCHIP® 3000 Reader (Caliper Life Sciences). […] Compounds were tested in dose-response format, and the inhibition of kinase activity was calculated at each concentration of compound.

ROCK2, sequence (O75116 whole entry, species assumed): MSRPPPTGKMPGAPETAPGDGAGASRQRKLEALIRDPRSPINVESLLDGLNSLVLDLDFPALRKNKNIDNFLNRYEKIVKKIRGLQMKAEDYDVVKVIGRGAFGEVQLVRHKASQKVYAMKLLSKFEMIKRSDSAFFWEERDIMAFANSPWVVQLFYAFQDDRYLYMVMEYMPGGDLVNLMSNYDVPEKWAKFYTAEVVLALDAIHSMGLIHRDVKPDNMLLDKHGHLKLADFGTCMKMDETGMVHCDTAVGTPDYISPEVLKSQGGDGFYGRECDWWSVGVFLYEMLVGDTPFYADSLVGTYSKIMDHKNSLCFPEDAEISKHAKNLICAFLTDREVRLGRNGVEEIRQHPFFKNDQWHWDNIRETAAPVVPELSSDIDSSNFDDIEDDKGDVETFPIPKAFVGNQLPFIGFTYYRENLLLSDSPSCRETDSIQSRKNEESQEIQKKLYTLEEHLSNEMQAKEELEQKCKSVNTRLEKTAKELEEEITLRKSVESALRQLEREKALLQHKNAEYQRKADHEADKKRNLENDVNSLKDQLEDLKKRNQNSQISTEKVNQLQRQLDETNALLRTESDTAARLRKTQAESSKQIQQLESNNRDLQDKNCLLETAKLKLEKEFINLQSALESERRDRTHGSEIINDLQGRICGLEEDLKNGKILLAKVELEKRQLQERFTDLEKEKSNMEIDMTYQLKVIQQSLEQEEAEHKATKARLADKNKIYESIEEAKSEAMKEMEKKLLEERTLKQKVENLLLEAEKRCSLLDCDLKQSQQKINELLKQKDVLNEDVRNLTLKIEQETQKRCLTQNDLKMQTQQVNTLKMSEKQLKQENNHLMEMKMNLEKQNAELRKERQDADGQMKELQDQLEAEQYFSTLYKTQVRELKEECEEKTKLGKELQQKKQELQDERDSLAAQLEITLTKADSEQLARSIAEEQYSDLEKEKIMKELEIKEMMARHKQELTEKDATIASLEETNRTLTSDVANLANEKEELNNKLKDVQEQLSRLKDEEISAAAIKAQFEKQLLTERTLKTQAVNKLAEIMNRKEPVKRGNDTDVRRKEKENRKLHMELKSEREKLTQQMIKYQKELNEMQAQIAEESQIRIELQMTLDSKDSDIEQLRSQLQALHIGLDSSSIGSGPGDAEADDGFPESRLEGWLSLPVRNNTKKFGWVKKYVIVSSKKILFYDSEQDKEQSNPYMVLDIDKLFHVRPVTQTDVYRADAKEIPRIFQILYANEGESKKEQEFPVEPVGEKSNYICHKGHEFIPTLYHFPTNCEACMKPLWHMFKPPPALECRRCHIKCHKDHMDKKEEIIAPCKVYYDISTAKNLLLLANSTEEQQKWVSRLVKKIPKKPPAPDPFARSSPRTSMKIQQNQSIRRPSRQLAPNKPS

Row | SMILES | IC50
1 | COc1cc(C(=O)N[C@@H]2CNC[C@H]2c2ccccc2)ccc1-c1cn[nH]c1 (racemic) [Example 70, trans-(±)-3-Methoxy-N-(4-phenylpyrrolidin-3-yl)-4-(1H-pyrazol-4-yl)benzamide] | 1.28 nM
2 | COc1cc(C(=O)N2CCC(c3ccccc3)C2)ccc1-c1cn[nH]c1 (centres unmarked) [Example 2, 4-[2-methoxy-4-(3-phenyl-pyrrolidine-1-carbonyl)phenyl]-1H-pyrazole] | 355 nM
3 | COc1cc(C(=O)N2CCC[C@H]2CO)ccc1-c1cn[nH]c1 [Example 3, [(2S)-1-[3-methoxy-4-(1H-pyrazol-4-yl)benzoyl]pyrrolidin-2-yl]methanol] | 1340 nM
4 | COc1cccc(C2CCCN2C(=O)c2ccc(-c3cn[nH]c3)c(OC)c2)c1 (centres unmarked) [Example 4, 4-{2-methoxy-4-[2-(3-methoxyphenyl)pyrrolidine-1-carbonyl]phenyl}-1H-pyrazole] | 31.8 nM
5 | COc1cc(C(=O)NC2CCc3ccccc32)ccc1-c1cn[nH]c1 (centres unmarked) [Example 5, N-(2,3-dihydro-1H-inden-1-yl)-3-methoxy-4-(1H-pyrazol-4-yl)benzamide] | 32.2 nM
6 | COc1cc(C(=O)N2CCCC2c2ccccc2OC)ccc1-c1cn[nH]c1 (centres unmarked) [Example 6, 4-{2-methoxy-4-[2-(2-methoxyphenyl)pyrrolidine-1-carbonyl]phenyl}-1H-pyrazole] | 511 nM
7 | COc1cc(C(=O)N2CCCC(c3ccccc3)C2)ccc1-c1cn[nH]c1 (centres unmarked) [Example 7, 1-[3-methoxy-4-(1H-pyrazol-4-yl)benzoyl]-3-phenylpiperidine] | 1430 nM
8 | COc1cc(C(=O)N2CCCCC2c2ccccc2F)ccc1-c1cn[nH]c1 (centres unmarked) [Example 8, 2-(2-fluorophenyl)-1-[3-methoxy-4-(1H-pyrazol-4-yl)benzoyl] piperidine] | 85.8 nM
9 | COc1cccc(C2CCCCN2C(=O)c2ccc(-c3cn[nH]c3)c(OC)c2)c1 (centres unmarked) [Example 9, 1-[3-methoxy-4-(1H-pyrazol-4-yl)benzoyl]-2-(3-methoxy-phenyl) piperidine] | 673 nM
10 | COc1cc(C(=O)N2CCCC2c2ccc(Cl)cc2)ccc1-c1cn[nH]c1 (centres unmarked) [Example 10, 4-{4-[2-(4-chlorophenyl)pyrrolidine-1-carbonyl]-2-methoxyphenyl}-1H-pyrazole] | 114 nM
11 | COc1cccc(C2CCCN2C(=O)c2ccc(-c3cn[nH]c3)c(OC)c2)c1 (centres unmarked) [Example 11, 4-{2-methoxy-4-[2-(3-methoxyphenyl)pyrrolidine-1-carbonyl]phenyl}-1H-pyrazole] | 1630 nM
12 | COc1cccc(C2CCCN2C(=O)c2ccc(-c3cn[nH]c3)c(OC)c2)c1 (centres unmarked) [Example 12, 4-{2-methoxy-4-[2-(3-methoxyphenyl)pyrrolidine-1-carbonyl]phenyl}-1H-pyrazole] | 12.6 nM
13 | COc1cc(C(=O)N2CCc3ccccc32)ccc1-c1cn[nH]c1 [Example 13, 1-[3-methoxy-4-(1H-pyrazol-4-yl)benzoyl]-2,3-dihydro-1H-indole] | 800 nM
14 | COc1cc(C(=O)N2CCCC2Cc2ccccc2)ccc1-c1cn[nH]c1 (centres unmarked) [Example 14, 4-[4(2-benzyl-pyrrolidine-1-carbonyl)-2-methoxy-phenyl]-1H-pyrazole] | 183 nM
15 | COc1cc(C(=O)N2CCCC2c2cccc(Br)c2)ccc1-c1cn[nH]c1 (centres unmarked) [Example 15, 4-{4-[2-(3-bromophenyl)pyrrolidine-1-carbonyl]-2-methoxyphenyl}-1H-pyrazole] | 31 nM
16 | COc1cc(C(=O)N2CCCC2c2cccc(S(N)(=O)=O)c2)ccc1-c1cn[nH]c1 (centres unmarked) [Example 16, 3-{1-[3-methoxy-4-(1H-pyrazol-4-yl)benzoyl]pyrrolidin-2-yl}benzene-1-sulfonamide] | 3.57 nM
17 | COc1cc(C(=O)N2CCCC2c2cccc(S(N)(=O)=O)c2)ccc1-c1cn[nH]c1 (centres unmarked) [Example 17, 3-{1-[3-methoxy-4-(1H-pyrazol-4-yl)benzoyl]pyrrolidin-2-yl}benzene-1-sulfonamide] | 1280 nM
18 | COc1cc(C(=O)N2CCCC2c2cccc(S(N)(=O)=O)c2)ccc1-c1cn[nH]c1 (centres unmarked) [Example 18, 3-{1-[3-methoxy-4-(1H-pyrazol-4-yl)benzoyl]pyrrolidin-2-yl} benzene-1-sulfonamide] | 2.79 nM
19 | COc1cc(C(=O)N2CCCC2c2ccc(F)cc2)ccc1-c1cn[nH]c1 (centres unmarked) [Example 19, 4-{4-[2-(4-fluorophenyl)pyrrolidine-1-carbonyl]-2-methoxyphenyl}-1H-pyrazole] | 41.4 nM
20 | COc1cc(C(=O)N2CCCC2c2ccccc2F)ccc1-c1cn[nH]c1 (centres unmarked) [Example 20, 4-{4-[2-(2-fluorophenyl)pyrrolidine-1-carbonyl]-2-methoxyphenyl}-1H-pyrazole] | 14.7 nM
21 | COc1cc(C(=O)N2CCCC2c2cccc(O)c2)ccc1-c1cn[nH]c1 (centres unmarked) [Example 21, 3-{1-[3-methoxy-4-(1H-pyrazol-4-yl)benzoyl]pyrrolidin-2-yl}phenol] | 2.74 nM

Row | SMILES | IC50
22 | COc1cc(C(=O)N2CCCC2c2ccc(C(F)(F)F)cc2)ccc1-c1cn[nH]c1 (centres unmarked) [Example 22, 4-(2-methoxy-4-{2-[4-(trifluoromethyl)phenyl]pyrrolidine-1-carbonyl}phenyl)-1H-pyrazole] | 125 nM
23 | COc1cc(C(=O)N2CCCC2c2ccc(C)cc2)ccc1-c1cn[nH]c1 (centres unmarked) [Example 23, 4-{2-methoxy-4-[2-(4-methyl-phenyl)pyrrolidine-1-carbonyl]phenyl}-1H-pyrazole] | 215 nM
24 | COc1cc(C(=O)N2CCC[C@@H]2C(=O)OC(C)(C)C)ccc1-c1cn[nH]c1 [Example 24, tert-butyl (2R)-1-[3-methoxy-4-(1H-pyrazol-4-yl)benzoyl] pyrrolidine-2-carboxylate] | 1100 nM
25 | COc1ccc(C2CCCN2C(=O)c2ccc(-c3cn[nH]c3)c(OC)c2)cc1 (centres unmarked) [Example 25, 4-{2-methoxy-4-[2-(4-methoxyphenyl)pyrrolidine-1-carbonyl]phenyl}-1H-pyrazole] | 331 nM
26 | COc1cc(C(=O)N2CCCC2c2ccccc2)ccc1-c1cn[nH]c1 (centres unmarked) [Example 26, 4-[2-methoxy-4-(2-phenyl-pyrrolidine-1-carbonyl)phenyl]-1H-pyrazole] | 50.5 nM
27 | COc1cc(C(=O)N2CCCC2c2cccc(C)c2)ccc1-c1cn[nH]c1 (centres unmarked) [Example 27, 4-{2-methoxy-4-[2-(3-methyl-phenyl)pyrrolidine-1-carbonyl]phenyl}-1H-pyrazole] | 61.4 nM
28 | COc1cc(C(=O)N2CCCC2c2ccccc2Cl)ccc1-c1cn[nH]c1 (centres unmarked) [Example 28, 4-{4-[2-(2-chlorophenyl)pyrrolidine-1-carbonyl]-2-methoxyphenyl}-1H-pyrazole] | 15.8 nM
29 | COc1cc(C(=O)N2CCCC2c2ccc3ccccc3c2)ccc1-c1cn[nH]c1 (centres unmarked) [Example 29, 4-{2-methoxy-4-[2-(naphthalen-2-yl)pyrrolidine-1-carbonyl]phenyl}-1H-pyrazole] | 68.3 nM
30 | COc1cc(C(=O)N2CCCC2c2ccc3c(c2)OCO3)ccc1-c1cn[nH]c1 (centres unmarked) [Example 30, 4-{4-[2-(2H-1,3-benzodioxol-5-yl)pyrrolidine-1-carbonyl]-2-methoxyphenyl}-1H-pyrazole] | 75.3 nM
31 | COc1cc(C(=O)N2CCC[C@@H]2c2cccc(S(C)(=O)=O)c2)ccc1-c1cn[nH]c1 [Example 31, 4-{4-[(2R)-2-(3-Methanesulfonylphenyl)pyrrolidine-1-carbonyl]-2-methoxyphenyl}-1H-pyrazole] | 11.6 nM
32 | COC(=O)c1cccc([C@H]2CCCN2C(=O)c2ccc(-c3cn[nH]c3)c(OC)c2)c1 [Example 32, Methyl 3-[(2R)-1-[3-methoxy-4-(1H-pyrazol-4-yl)benzoyl]pyrrolidin-2-yl]benzoate] | 5.83 nM
33 | CCNC(=O)c1cccc(C2CCCN2C(=O)c2ccc(-c3cn[nH]c3)c(OC)c2)c1 (centres unmarked) [Example 35, N-Ethyl-3-(1-(3-methoxy-4-(1H-pyrazol-4-yl)benzoyl)pyrrolidin-2-yl)benzamide] | 4.89 nM
34 | COc1cc(C(=O)N2CCC[C@@H]2c2cccc(C(=O)NCC(C)(C)O)c2)ccc1-c1cn[nH]c1 [Example 39, N-(2-hydroxy-2-methylpropyl)-3-[(2R)-1-[3-methoxy-4-(1H-pyrazol-4-yl)benzoyl]pyrrolidin-2-yl]benzamide] | 4.52 nM
35 | COc1cc(C(=O)N2CCC[C@@H]2c2cccc(C(=O)N(C)C)c2)ccc1-c1cn[nH]c1 [Example 40, 3-[(2R)-1-[3-methoxy-4-(1H-pyrazol-4-yl)benzoyl]pyrrolidin-2-yl]-N,N-dimethylbenzamide] | 725 nM
36 | COc1cc(C(=O)N2CCC[C@@H]2c2cccc(C(=O)NC3CCS(=O)(=O)C3)c2)ccc1-c1cn[nH]c1 (stereo partly drawn) [Example 41, N-(1,1-dioxo-1λ^6-thiolan-3-yl)-3-[(2R)-1-[3-methoxy-4-(1H-pyrazol-4-yl)benzoyl]pyrrolidin-2-yl]benzamide] | 5.53 nM
37 | COc1cc(C(=O)N2CCC[C@@H]2c2cccc(C(=O)NC3CC3)c2)ccc1-c1cn[nH]c1 [Example 42, N-cyclopropyl-3-[(2R)-1-[3-methoxy-4-(1H-pyrazol-4-yl)benzoyl]pyrrolidin-2-yl]benzamide] | 4.59 nM
38 | COC(=O)c1cccc([C@H]2CC(OC(C)=O)CN2C(=O)c2ccc(-c3cn[nH]c3)c(OC)c2)c1 (stereo partly drawn) [Example 43, Methyl 3-[(2R)-4-(acetyloxy)-1-[3-methoxy-4-(1H-pyrazol-4-yl)benzoyl]pyrrolidin-2-yl]benzoate] | 54.4 nM
39 | COc1cc(C(=O)N2CC(O)C[C@@H]2c2cccc(C(=O)O)c2)ccc1-c1cn[nH]c1 (stereo partly drawn) [Example 44, 3-[(2R)-4-Hydroxy-1-[3-methoxy-4-(1H-pyrazol-4-yl)benzoyl]pyrrolidin-2-yl]benzoic acid] | 49.7 nM
40 | CNC(=O)c1cccc([C@H]2CC(O)CN2C(=O)c2ccc(-c3cn[nH]c3)c(OC)c2)c1 (stereo partly drawn) [Example 46, 3-[(2R)-4-hydroxy-1-[3-methoxy-4-(1H-pyrazol-4-yl)benzoyl]pyrrolidin-2-yl]-N-methylbenzamide] | 18.2 nM
41 | COc1cc(C(=O)N2CC(O)C[C@@H]2c2cccc(C(=O)NCC(C)(C)O)c2)ccc1-c1cn[nH]c1 (stereo partly drawn) [Example 47, 3-[(2R)-4-hydroxy-1-[3-methoxy-4-(1H-pyrazol-4-yl)benzoyl]pyrrolidin-2-yl]-N-(2-hydroxy-2-methylpropyl)benzamide] | 7.29 nM
